{"source": "patent US20090155392A1", "about": "“Methods and Systems for Sublingual Guarana Administration” (priority 2007, published 2009)", "origin": "cited, not measured here", "key": {"[1]": {"settings": "in vivo"}, "[2]": {"settings": "versus other lithium salts (lithium carbonate, lithium citrate)"}}}
{"smiles": "CS(C)(=O)=O", "note": "[MSM, Methylsulfonylmethane]", "values": [{"measurement": "homocysteine levels in blood", "setting": "[1]", "result": "statistically significant lower levels"}, {"measurement": "joint pain and stiffness", "setting": "[1]", "result": "significantly beneficial effect on joint pain and stiffness"}]}
{"smiles": "O=C([O-])c1cc(=O)[nH]c(=O)[nH]1.[Li+]", "note": "[lithium orotate, Lithium orotate]", "values": [{"measurement": "bio-activity relative to other lithium salts", "setting": "[2]", "result": 20, "unit": "times"}]}
{"smiles": "COc1cc(CNC(=O)CCCC/C=C/C(C)C)ccc1O", "note": "[capsaicin, Capsaicin]", "values": [{"measurement": "mean metabolic rate", "setting": "30 minutes and 60 minutes after taking the extract", "result": "significant increase"}, {"measurement": "subjects with reduced body fat", "setting": "two week period", "result": 70, "unit": "%"}]}
